Data set [1] concerns anti-Chlamydia abzymes. Format: biochemical, human. Further details: key to In-vitro Inhibition: + = inhibition; − = no inhibition.
Data set [2] relates to anti-Chlamydia IgG. To be noted: best of previously undertaken trials with azithromycin; cited from earlier work.
Data set [3] can be described thus: Anti-abzyme therapy trial: modified Rose-Blackburn Questionnaire. Further details: Score by modified Rose-Blackburn Questionnaire, 60 days after start of the treatment / Rose Blackthorn Score Day 60: scale not given here. Format: in vivo, human. The source says:
The progression of the clinical condition of the patients was monitored by the use of the modified Bruce Protocol for treadmill exercise/stress ECG testing and on the Rose-Blackburn Questionnaire (Cardiovascular Survey Methods. WHO, Geneva, 1968).

The subject of data set [4] is anti-Chlamydia abzymes. The data set can be described thus: Anti-abzyme therapy trial in ischaemic heart disease: serum abzyme activity. It is filed as in vivo, human.
Data set [5] concerns anti-Chlamydia abzymes. Description: Serum abzyme activity in stable angina patients treated with azithromycin with or without aspirin (Example 8). It is filed as in vivo, human. As to conditions: azithromycin 500 mg once per day.
Data set [6] deals with anti-Chlamydia IgG. The data set can be described thus: Anti-abzyme therapy trial: anti-Chlamydia IgG. It is filed as in vivo, human.
For a further data set, the system named is human plasma. Description: In vitro kaolin clotting of plasma with atheroma IgG abzymes. As to conditions: pH 6.2.
Setting [7] is: individual IHD patients negative for anti-Chlamydia IgG.
[8] abbreviates: Therapy Group A individual IHD patients, azithromycin 500 mg daily.
[9] abbreviates: Therapy Group A mean, before treatment 47.5.
The mark [10] stands for this setting: group mean, before treatment 45.9.
The mark [11] stands for this setting: individual stable angina patients.

Where “and” joins values, the source holds several entries; their conditions need not be identical. Equal values may be shown once. Read-outs that look alike come from different tables or passages of the source. Marks after values point to notes of the source that are not given here.

Turning to `CC[C@H]1OC(=O)[C@H](C)[C@@H](O[C@H]2C[C@@](C)(OC)[C@@H](O)[C@H](C)O2)[C@H](C)[C@@H](O[C@@H]2O[C@H](C)C[C@H](N(C)C)[C@H]2O)[C@](C)(O)C[C@@H](C)CN(C)[C@H](C)[C@@H](O)[C@]1(C)O` [Azithromycin], the adverse reactions result (human, in vivo) is “No adverse reactions”. Further, the “tablets of nitroglycerine daily after 15 days of treatment” value (patient 5, before treatment 10 tablets daily) is on record as 5 tablets of nitroglycerine. In addition, the “Lipid oxidising activity of anti-Chlamydia abzymes” value is on record as 7 μM MDA/ml with anti-Chlamydia abzymes [1] (in DMSO, 1 μM, control 61); 0 μM MDA/ml with anti-Chlamydia abzymes [1] (in DMSO, 5 μM, control 61); 19 μM MDA/ml in the data set on anti-Chlamydia abzymes [1] (suspension in water, 1 μM, control 61); 0 μM MDA/ml in the data set with anti-Chlamydia abzymes [1] (suspension in water, 2 μM, control 61); 0 μM MDA/ml with anti-Chlamydia abzymes [1] (suspension in water, 10 μM, control 61); 0 μM MDA/ml in the data set with anti-Chlamydia abzymes [1] (suspension in water, 20 μM, control 61). In the data set on anti-Chlamydia IgG [2], the “treated patients with a reduction of titers of anti-Chlamydia antibodies” value is on record as 43%. The “Score by modified Rose-Blackburn Questionnaire, 60 days after start of the treatment” value is 14.4 ± 1.14 in data set [3] (group mean); 13 and 16 and 18 and 15 (2×) and 8 and 11 and 17 (2×) and 19 and 10 in data set [3] (individual patients). Besides, the “Rose Blackthorn Score Day 60” value in data set [3] (setting [7]) was 18 and 19 and 10 and 13. The “Clinical Status modified Rose G., Blackburn H Questionnaire, 60 days after treatment” value in data set [3] (summary, group mean, PCG 21.5 ± 1.19) worked out at 14.4 ± 1.14. Moreover, the “Anti-Chlamydia abzyme activity, 15 days after the start of treatment” value was 6.7 μM MDA/ml (3×) and 0 μM MDA/ml (3×) and 60* μM MDA/ml and 8.3 μM MDA/ml and 33 μM MDA/ml and 75* μM MDA/ml and 52* μM MDA/ml in the data set with anti-Chlamydia abzymes [4] (setting [8]); 22.5 μM MDA/ml in the data set on anti-Chlamydia abzymes [4] (setting [9]). Further, the “Anti-Chlamydia abzyme activity, 30 days after the start of treatment” value with anti-Chlamydia abzymes [4] (setting [8]) was 78** μM MDA/ml and 0 μM MDA/ml (3×) and 37* μM MDA/ml and 28** μM MDA/ml and 3.3 μM MDA/ml (2×) and 10 μM MDA/ml (2×) and 78* μM MDA/ml; in the data set on anti-Chlamydia abzymes [4] (setting [9]) it was 22.5 μM MDA/ml. For the same compound, the “Anti-Chlamydia abzyme activity, 45 days after the start of treatment” value in the data set with anti-Chlamydia abzymes [4] (setting [8]) was 17 μM MDA/ml and 0 μM MDA/ml (5×) and 20* μM MDA/ml and 43* μM MDA/ml and 3.3 μM MDA/ml (2×) and 5.0 μM MDA/ml; in the data set on anti-Chlamydia abzymes [4] (setting [9]) it was 7.4 μM MDA/ml. Further, the “Anti-Chlamydia abzyme activity, 60 days after the start of treatment” value with anti-Chlamydia abzymes [4] (setting [8]) was 3.3 μM MDA/ml and 6.7 μM MDA/ml (2×) and 0 μM MDA/ml (7×) and 0.5 μM MDA/ml; with anti-Chlamydia abzymes [4] (setting [9]), 1.6 μM MDA/ml. In addition, in the data set on anti-Chlamydia abzymes [4] (Therapy Group A, 3 out of 11), the “patients with no changes in the abzyme activity after 15 days” value is reported as 27%. The “Abzyme activity Day 60” value in the data set with anti-Chlamydia abzymes [4] (setting [7]) is 6.7 (2×) and 3.3 and 0. Besides, in the data set on anti-Chlamydia abzymes [4] (summary, group mean, PCG 55.3 ± 6.18, Norm 6.36 ± 1.14), the “Anti-Chlamydia abzymes activity, 60 days after treatment” value is given as 1.6 ± 0.89 μM/MDA/ml. For the same compound, the “Anti-Chlamydia abzyme activity, 15 days after the start of the treatment” value in the data set with anti-Chlamydia abzymes [5] (setting [10]) was 19.6 μM MDA/ml; with anti-Chlamydia abzymes [5] (setting [11]) it was 60 μM MDA/ml and 0 μM MDA/ml (3×) and 8.3 μM MDA/ml and 6.7 μM MDA/ml (3×) and 33 μM MDA/ml and 75 μM MDA/ml. Also, the “Anti-Chlamydia abzyme activity, 30 days after the start of the treatment” value in the data set with anti-Chlamydia abzymes [5] (setting [10]) was 17.7 μM MDA/ml; in the data set on anti-Chlamydia abzymes [5] (setting [11]), 37 μM MDA/ml and 0 μM MDA/ml (3×) and 28 μM MDA/ml and 3.3 μM MDA/ml (2×) and 10 μM MDA/ml and 78 μM MDA/ml. The “Anti-Chlamydia IgG, 60 days after treatment” value in the data set on anti-Chlamydia IgG [6] (summary, group value, before treatment 43.6, 48.5, 52.0 (A, C, B), immuno-fluorescent assay) is reported as 0 (titers)^−1. Besides, the “presence of anti-Chlamydia IgG after the intensive regimen” value in the data set with anti-Chlamydia IgG [6] (therapy trial) is given as “totally eliminated”.
For the compound `[N-]=[N+]=[N-].[Na+]` [NaN1, sodium azide], in the data set on anti-Chlamydia abzymes [1], the “In-vitro Inhibition” value is given as “+”, the “Lipid oxidising activity of anti-Chlamydia abzymes” value was found to be 0 μM MDA/ml and the “Result (inhibition of anti-Chlamydia abzymes)” value is “Positive”. Further, the “abzyme effect on the plasma clotting after pre-incubation of the abzymes with inhibitor” value with human plasma is given as “reduction”.

These data come from patent US7419657B2, “Treatment of atherosclerotic disorders” (priority 2001, dated 2008).
